Measurements reported in article PMC8269059, “Glycyrrhizin Derivatives Suppress Cancer Chemoresistance by Inhibiting Progesterone Receptor Membrane Component 1” (Cancers, 2021).
Read-outs that look alike come from different tables or passages of the source.

How the values were obtained:
HCT116 cells = test: Chemosensitivity MTT assay in HCT116 cells; format: cell-based, human; conditions: Homo sapiens, HCT-116, HCT116 cell viability, MTT
Description: The HCT116 cells, a human colon cancer cell line, and HuH7 cells, a human hepatoma cell line, were maintained in Dulbecco’s modified Eagle’s medium (DMEM) containing 10% fetal bovine serum (FBS) and 1% penicillin-streptomycin at 37 °C in a 5% CO2 humidified incubator.
To analyze the chemosensitivity of HCT116 or HuH7 cells, the cells were incubated with erlotinib (20 µM) or CDDP (10 µM) and either GL or GL derivatives for 24 h on a 96-well plate. Cell viability was determined using an MTT assay kit (Millipore, Burlington, MA, USA) according to the manufacturer’s instructions.

EGF signaling = EGF signaling (western blot) in HuH7 cells; format: cell-based, human; conditions: HuH7, EGF for 5 min
Description: For analysis of EGFR signaling, cells were incubated overnight with GL or GlucoGL, and then EGF (100 ng/mL) was added for 5 min. Cells were lysed with RIPA buffer, and the lysates were subjected to SDS-PAGE and visualized through western blotting using antibodies against PGRMC1, EGFR, phospho-Y1068 EGFR, AKT, phospho-S473AKT, ERK, and phospho-T185 Y187 ERK.

[1] = tested on: EGF uptake in HCT116 cells; test: Alexa Fluor 488 EGF uptake in HCT116 cells; format: cell-based, human; conditions: HCT116, microscopy and flow cytometry, 5 min, vs control cells
Description: (§1) For the analysis of EGF and LDL uptake, HCT116 cells were incubated with serum-free DMEM supplemented with Alexa Fluor 488 EGF complex or Alexa Fluor 488 acetylated LDL to a final concentration of 1 µg/L at 37 °C for 5 min. For immunofluorescence microscopy analyses, HCT116 cells treated with Alexa Fluor 488-labeled EGF or LDL were fixed with 4% paraformaldehyde for 20 min and incubated in 10 mg/L DAPI for 15 min. The cells were observed using a BZ-x800 fluorescence microscope (Keyence, IL, USA). For flow cytometry analysis, HCT116 cells treated with Alexa Fluor 488-labeled EGF or LDL were detached using trypsin/EDTA and suspended in PBS. The mean fluorescent intensity per 10,000 cells was analyzed using a flow cytometer (Gallios, Beckman Coulter Life Science, Pasadena, CA, USA). The data were analyzed using Kaluza 2.1 analysis software (Beckman Coulter Life Science).

[2] = biological target: T1, interaction between PGRMC1 and CYP3A4 (Homo sapiens, UniProt O00264); test: In vitro binding assay between PGRMC1 and CYP3A4; conditions: purified proteins, co-IP
T1 construct: FLAG-PGRMC1 (a.a. 44-195); Sigma (CYP3A4 only) C4982 (CYP3A4 only)
T1 sequence (O00264 44-195): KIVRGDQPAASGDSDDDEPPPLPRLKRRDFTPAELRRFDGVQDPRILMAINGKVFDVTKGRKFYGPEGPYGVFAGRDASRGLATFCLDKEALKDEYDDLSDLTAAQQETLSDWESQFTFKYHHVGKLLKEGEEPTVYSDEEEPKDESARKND
Description: For in vitro binding assays between PGRMC1 and CYP3A4, 1 μg of purified CYP3A4 proteins (Sigma: C4982) were incubated with 10 μg of FLAG-PGRMC1 (a.a. 44-195) treated with or without GL or GlucoGL in 500 μL of binding buffer containing 20 mM HEPES-NaOH (pH 7.9), 100 mM NaCl, 0.2 mM EDTA, 10% glycerol, and 0.1% NP40 for 60 min at room temperature. Then, 10 μL of equilibrated anti-FLAG (M2) agarose was added to the mixture, which was then incubated for 60 min at room temperature. Bound proteins were washed three times with 200 μL of binding buffer and eluted with 10 μL of 2 μg/mL FLAG elution peptide (Sigma: F4799). The eluates were subjected to SDS–PAGE and visualized by Western blotting using antibodies against CYP3A4 (Santa Cruz: sc-53850) and FLAG.

heme-dimerized PGRMC1 = biological target: T2, heme-dimerized PGRMC1 (Homo sapiens, UniProt O00264); test: ITC binding to heme-dimerized PGRMC1; conditions: for Kd / TΔS / ΔG / ΔH: ITC; for Kd: 298 K, 50 mM phosphate pH 7.0, heme-dimerized PGRMC1 (WT); for TΔS / ΔG / ΔH: heme-dimerized PGRMC1 (WT)
T2 construct: human PGRMC1 intracellular domain residues 43-195; GST (N, cleaved yes); made in house; host or cells: E. coli BL21 (DE3)
T2 sequence (O00264 43-195): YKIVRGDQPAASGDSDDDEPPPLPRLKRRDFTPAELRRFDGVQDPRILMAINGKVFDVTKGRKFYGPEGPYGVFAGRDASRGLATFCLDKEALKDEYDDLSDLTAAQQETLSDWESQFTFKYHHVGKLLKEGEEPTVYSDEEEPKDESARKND
Description: Protein expression was induced by adding 1 mM isopropyl-β-thiogalactopyranoside (IPTG) and incubating at 37 °C for 4 h. After harvesting cells, the cell pellets were then resuspended in buffer containing 20 mM Tris-HCl (pH 7.5), 100 mM NaCl, and 0.1% Tween 20, sonicated twice at 4 °C for 5 min, and centrifuged at 20,000× g for 30 min. The supernatant was incubated with glutathione Sepharose 4B (GE Healthcare, Chicago, IL, USA) for 1 h at 4 °C. The resin was then washed five times with the same buffer, and the GST tag cleaved by adding Precision Protease (GE Healthcare) and incubating at 4 °C for 16 h. Apo-PGRMC1 or HMGB1 proteins was purified using size-exclusion chromatography in a Superdex 200 column (GE Healthcare). Heme-bound PGRMC1 was prepared by treating with 100 μM hemin and then purified using size-exclusion chromatography.
GL derivatives were dissolved in 3 mM ITC-Buffer and titrated into 100 μM apo-PGRMC1, heme-bound-PGRMC1, or HMGB1 protein. Titration was performed by injecting 2 µL of the syringe solution at intervals of 120 s. Binding isotherms were analyzed using SEDPHAT [35]. The binding of AG205 to apo- or heme-PGRMC1 (100 μM) was analyzed using a concentration of 3 mM containing 1% DMSO.

[3] = tested on: LDL uptake in HCT116 cells; test: Alexa Fluor 488-labelled LDL uptake in HCT116 cells; format: cell-based, human; conditions: HCT116, microscopy and flow cytometry, 5 min
Description: as §1

EGFR kinase = biological target: T3, EGFR kinase (Homo sapiens, UniProt P00533); test: EGFR kinase assay in vitro; format: biochemical; conditions: Kinase-Glo, erlotinib 100nM
T3 construct: purchased BPS Bioscience
T3 sequence (P00533 25-1210): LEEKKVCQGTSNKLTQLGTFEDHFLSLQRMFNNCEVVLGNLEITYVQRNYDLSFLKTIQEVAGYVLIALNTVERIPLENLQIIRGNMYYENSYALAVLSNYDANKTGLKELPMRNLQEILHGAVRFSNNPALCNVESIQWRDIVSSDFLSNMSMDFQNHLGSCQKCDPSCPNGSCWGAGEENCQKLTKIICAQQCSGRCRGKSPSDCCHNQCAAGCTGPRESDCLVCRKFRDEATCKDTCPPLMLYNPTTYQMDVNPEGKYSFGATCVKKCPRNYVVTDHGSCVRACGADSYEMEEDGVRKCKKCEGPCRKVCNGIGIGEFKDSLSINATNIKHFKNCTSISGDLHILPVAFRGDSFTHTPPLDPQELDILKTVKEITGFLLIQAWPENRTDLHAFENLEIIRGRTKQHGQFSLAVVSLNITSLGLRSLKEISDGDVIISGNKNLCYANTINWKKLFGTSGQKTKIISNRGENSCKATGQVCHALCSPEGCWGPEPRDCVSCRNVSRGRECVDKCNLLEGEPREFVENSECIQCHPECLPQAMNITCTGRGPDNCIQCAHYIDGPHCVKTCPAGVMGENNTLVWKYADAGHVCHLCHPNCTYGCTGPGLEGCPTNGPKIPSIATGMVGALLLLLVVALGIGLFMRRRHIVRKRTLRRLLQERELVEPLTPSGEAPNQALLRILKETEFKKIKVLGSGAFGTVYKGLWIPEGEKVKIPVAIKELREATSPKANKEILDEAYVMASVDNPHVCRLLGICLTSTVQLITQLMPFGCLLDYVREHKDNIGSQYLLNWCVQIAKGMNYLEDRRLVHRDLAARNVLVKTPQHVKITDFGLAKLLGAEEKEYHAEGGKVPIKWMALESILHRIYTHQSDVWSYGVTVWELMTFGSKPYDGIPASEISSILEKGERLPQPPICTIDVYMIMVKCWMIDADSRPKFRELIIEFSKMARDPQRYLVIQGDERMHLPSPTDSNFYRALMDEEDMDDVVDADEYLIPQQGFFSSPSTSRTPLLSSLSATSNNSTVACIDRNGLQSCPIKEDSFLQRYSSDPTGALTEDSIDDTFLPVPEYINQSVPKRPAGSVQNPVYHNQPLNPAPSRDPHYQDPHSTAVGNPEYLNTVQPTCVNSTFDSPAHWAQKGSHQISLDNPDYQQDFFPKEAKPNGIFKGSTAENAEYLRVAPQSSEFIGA
Description: The assay was performed using an EGFR kinase assay kit (BPS Bioscience, San Diego, CA, USA). EGFR kinase activity was analyzed by measuring the amount of ATP remaining following the kinase reaction based on luminescent intensity using Kinase-Glo MAX (Promega, Madison, WI, USA). A mixture of kinase buffer, ATP, and PTK substrate was incubated with EGFR (1 ng/µL) with or without GL or GlucoGL at 30 °C for 40 min. Kinase-Glo max was added to each well and incubated at room temperature for 15 min under light protection. Luminescent intensity was measured using a microplate reader.

PGRMC1 K132V = biological target: T4, PGRMC1 K132V (Homo sapiens, UniProt O00264, K132V); test: ITC binding of GL to PGRMC1 mutant K132V
T4 construct: human PGRMC1 intracellular domain residues 43-195; GST (N, cleaved yes); made in house; host or cells: E. coli BL21 (DE3)
T4 sequence (O00264 43-195 K132V): as the sequence (O00264 43-195) above, with K90V counted along it
Description: (§2) Bacterial expression vectors pGEX-PGRMC1 (human PGRMC1 intracellular domain residues 43-195) and mammalian FLAG-tagged expression vector pCMV-FLAG-PGRMC1 (full-length) were constructed as described previously. Expression vectors for PGRMC1 point mutants were generated by site-directed mutagenesis with PCR. For construction of HMGB1 expression vector, human HMGB1 full-length cDNA was cloned from cDNA library of HCT116 cells using the primers (Forward: 5′-[…]-3′, Reverse: 5′-[…]-[…]-3′), digested with Bam HI and Sal I, and then ligated into pGEX6P1.
(§3) ITC experiments were performed at 298 K with ITC-Buffer (50 mM phosphate [pH 7.0]) using a MicroCal iTC200 (Malvern Panalytical, Malvern, UK). GL derivatives were dissolved in […] and titrated into 100 μM apo-PGRMC1, heme-bound-PGRMC1, or HMGB1 protein. Titration was performed by injecting 2 µL of the syringe solution at intervals of 120 s. Binding isotherms were analyzed using SEDPHAT [35]. The binding of AG205 to apo- or heme-PGRMC1 (100 μM) was analyzed using a concentration of 3 mM containing 1% DMSO. The binding affinities of GL derivatives for HMGB1 (80 µM) were analyzed using a concentration of 3 mM.

PGRMC1 G111W = biological target: T5, PGRMC1 G111W (Homo sapiens, UniProt O00264, G111W); test: ITC binding of GL to PGRMC1 mutant G111W
T5 construct: human PGRMC1 intracellular domain residues 43-195; GST (N, cleaved yes); made in house; host or cells: E. coli BL21 (DE3)
T5 sequence (O00264 43-195 G111W): as the sequence (O00264 43-195) above, with G69W counted along it
Description: as §2, §3

[4] = with CDDP (10 µM), read-out: IC50 CDDP
[5] = with erlotinib (20 µM), read-out: IC50 Erlotinib

**Q.** `CC1(C(=O)O)CCC2(C)CCC3(C)C(=CC(=O)C4C5(C)CCC(OC6OC(C(=O)O)C(O)C(O)C6OC6OC(CO)C(O)C(O)C6O)C(C)(C)C5CCC43C)C2C1` (stereo not drawn) [Glucoglycyrrhizin (GlucoGL), Glucoglycyrrhizin] was tested. Which IC50 (HCT116 cells; [4]) did it give?
**A.** 14.9 µM

**Q.** What about the IC50 (HCT116 cells; [5]) of the same molecule?
**A.** 15.7 µM

**Q.** And the EGF signaling (EGF signaling)?
**A.** suppressed the EGF signaling

**Q.** And the “Uptake of labelled EGF” value [1]?
**A.** significantly suppressed

**Q.** And the “Interaction between PGRMC1 and CYP3A4” value [2]?
**A.** interfered with the interaction

**Q.** And the Kd (heme-dimerized PGRMC1)?
**A.** 1.38 µM

**Q.** And the TΔS (heme-dimerized PGRMC1)?
**A.** 7.44 K·kcal/mol

**Q.** What about the ΔG (heme-dimerized PGRMC1) of the same molecule?
**A.** -8.00 kcal/mol

**Q.** What about the ΔH (heme-dimerized PGRMC1) of the same molecule?
**A.** -0.56 kcal/mol

**Q.** What about the Labelled-LDL uptake [3] of the same molecule?
**A.** significantly suppressed

**Q.** What about the EGFR kinase activity (EGFR kinase) of the same molecule?
**A.** no inhibitory effect

**Q.** How did the Kd (PGRMC1 K132V) turn out when `CC1(C)[C@@H](O[C@H]2O[C@H](C(=O)O)[C@@H](O)[C@H](O)[C@H]2O[C@@H]2O[C@H](C(=O)O)[C@@H](O)[C@H](O)[C@H]2O)CC[C@]2(C)[C@H]3C(=O)C=C4[C@@H]5C[C@@](C)(C(=O)O)CC[C@]5(C)CC[C@@]4(C)[C@]3(C)CC[C@@H]12` [Glycyrrhizin (GL), Glycyrrhizin] was run?
**A.** 84.6 µM

**Q.** What about the TΔS (PGRMC1 K132V) of the same molecule?
**A.** 4.55 K･kcal/mol

**Q.** And the ΔG (PGRMC1 K132V)?
**A.** -5.56 kcal/mol

**Q.** And the ΔH (PGRMC1 K132V)?
**A.** -1.01 kcal/mol

**Q.** What about the IC50 (HCT116 cells; [4]) of the same molecule?
**A.** 53.1 µM

**Q.** And the IC50 (HCT116 cells; [5])?
**A.** 52 µM

**Q.** What about the EGF signaling (EGF signaling) of the same molecule?
**A.** suppressed the EGF signaling

**Q.** And the “Uptake of labelled EGF” value [1]?
**A.** significantly suppressed

**Q.** What about the “Interaction between PGRMC1 and CYP3A4” value [2] of the same molecule?
**A.** interfered with the interaction

**Q.** And the Kd (PGRMC1 G111W)?
**A.** 108 µM

**Q.** And the TΔS (PGRMC1 G111W)?
**A.** 4.39 K･kcal/mol

**Q.** What about the ΔH (PGRMC1 G111W) of the same molecule?
**A.** -1.86 kcal/mol

**Q.** And the Kd (heme-dimerized PGRMC1)?
**A.** 52.7 µM

**Q.** And the TΔS (heme-dimerized PGRMC1)?
**A.** 4.61 K·kcal/mol

**Q.** And the ΔG (heme-dimerized PGRMC1)?
**A.** -5.84 kcal/mol

**Q.** What about the ΔH (heme-dimerized PGRMC1) of the same molecule?
**A.** -1.23 kcal/mol

**Q.** And the “Binding to heme-dimerized PGRMC1 relative to binding to HMGB1” value (heme-dimerized PGRMC1; ratio of KD HMGB1 / PGRMC1)?
**A.** 4.23 times

**Q.** And the Labelled-LDL uptake [3]?
**A.** significantly suppressed

**Q.** What about the EGFR kinase activity (EGFR kinase) of the same molecule?
**A.** no inhibitory effect
